The experiment deals with T1, human PAH with the R408W mutation (Homo sapiens, UniProt P00439, R408W).
T1 construct: expressed in transfected cells
T1 sequence (P00439 1-452 R408W): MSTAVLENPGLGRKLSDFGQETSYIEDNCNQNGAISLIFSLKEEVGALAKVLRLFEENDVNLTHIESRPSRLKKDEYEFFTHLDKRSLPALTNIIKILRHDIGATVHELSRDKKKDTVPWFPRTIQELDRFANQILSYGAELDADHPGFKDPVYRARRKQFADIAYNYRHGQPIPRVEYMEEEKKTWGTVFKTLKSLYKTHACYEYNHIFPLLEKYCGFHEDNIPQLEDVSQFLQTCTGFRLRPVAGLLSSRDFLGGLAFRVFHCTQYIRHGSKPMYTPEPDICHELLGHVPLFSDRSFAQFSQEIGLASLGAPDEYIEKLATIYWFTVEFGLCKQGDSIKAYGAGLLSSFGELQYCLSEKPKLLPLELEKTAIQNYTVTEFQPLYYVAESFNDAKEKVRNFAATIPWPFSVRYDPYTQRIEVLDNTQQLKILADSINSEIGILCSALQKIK
In words: Cell Based Phenylalanine Flux Assay.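 Also: after compound treatment, cells received sepiapterin plus isotope-labelled Phenylalanine for 4 hours, then labelled Tyrosine in the medium was quantified, 10-point 2-fold dilution series run in duplicate.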 The settings on record: A375 cells expressing human R408W PAH; 24 hrs compound incubation; 13C-Tyrosine by LC-MS; average where tested multiple times; read-out: AC50.

SMILES strings stand for the structures.

Take `CC(C)(F)c1nnc(C(=O)N2CCc3[nH]cnc3[C@H]2c2cc3cccc(C(F)(F)F)n3n2)o1` [Example 1161, (S)-(5-(2-fluoropropan-2-yl)-1,3,4-oxadiazol-2-yl)(4-(7-(trifluoromethyl)pyrazolo[1,5-a]pyridin-2-yl)-6,7-dihydro-1H-imidazo[4,5-c]pyridin-5(4H)-yl)methanone]: the AC50 – broadly, the concentration at which the activity in the assay is half-maximal – lay in the range of 500 to 1000 nM.
As for `Cn1nc(Cl)nc1C(=O)N1CCc2[nH]cnc2[C@H]1c1cc2cccc(C(F)(F)F)n2n1` [Example 1162, (S)-(3-chloro-1-methyl-1H-1,2,4-triazol-5-yl)(4-(7-(trifluoromethyl)pyrazolo[1,5-a]pyridin-2-yl)-6,7-dihydro-1H-imidazo[4,5-c]pyridin-5(4H)-yl)methanone], the AC50 was < 500 nM.
The figure for `Cc1cccc2cc([C@H]3c4nc[nH]c4CCN3C(=O)c3oc([C@@H](C)O)nc3C(F)F)nn12` [Example 1165, (4-(difluoromethyl)-2-((R)-1-hydroxyethyl)oxazol-5-yl)((R)-4-(7-methylpyrazolo[1,5-a]pyridin-2-yl)-6,7-dihydro-1H-imidazo[4,5-c]pyridin-5(4H)-yl)methanone] is 1000 to 5000 nM; for `COc1cccn2nc([C@@H]3c4nc[nH]c4CCN3C(=O)c3cnco3)cc12` [Example 1166, (S)-(4-(4-methoxypyrazolo[1,5-a]pyridin-2-yl)-6,7-dihydro-1H-imidazo[4,5-c]pyridin-5(4H)-yl)(oxazol-5-yl)methanone] it is 500 to 1000 nM.
The figure for `COc1cccn2nc([C@@H]3c4nc[nH]c4CCN3C(=O)c3nnc(C4CC4)o3)cc12` [Example 1168, (S)-(5-cyclopropyl-1,3,4-oxadiazol-2-yl)(4-(4-methoxypyrazolo[1,5-a]pyridin-2-yl)-6,7-dihydro-1H-imidazo[4,5-c]pyridin-5(4H)-yl)methanone] is 500 to 1000 nM; for `COc1cccn2nc([C@H]3c4nc[nH]c4CCN3C(=O)c3nnc(C4CC4)o3)cc12` [Example 1169, (R)-(5-cyclopropyl-1,3,4-oxadiazol-2-yl)(4-(4-methoxypyrazolo[1,5-a]pyridin-2-yl)6,7-dihydro-1H-imidazo[4,5-c]pyridin-5(4H)-yl)methanone] it is > 5000 nM.
The figure for `Cc1ccc2cc([C@@H]3c4nc[nH]c4CCN3C(=O)c3nnc(C(C)(C)F)o3)nn2c1` [Example 1171, (S)-(5-(2-fluoropropan-2-yl)-1,3,4-oxadiazol-2-yl)(4-(6-methylpyrazolo[1,5-a]pyridin-2-yl)-6,7-dihydro-1H-imidazo[4,5-c]pyridin-5(4H)-yl)methanone] is 500 to 1000 nM; for `O=C(c1ocnc1C(F)(F)F)N1CCc2[nH]cnc2[C@H]1c1cc2cccc(Cl)n2n1` [Example 1172, (S)-(4-(7-chloropyrazolo[1,5-a]pyridin-2-yl)-6,7-dihydro-1H-imidazo[4,5-c]pyridin-5(4H)-yl)(4-(trifluoromethyl)oxazol-5-yl)methanone] it is < 500 nM; for `Cc1ncoc1C(=O)N1CCc2[nH]cnc2[C@H]1c1cc2cccc(Cl)n2n1` [Example 1174, (S)-(4-(7-chloropyrazolo[1,5-a]pyridin-2-yl)-6,7-dihydro-1H-imidazo[4,5-c]pyridin-5(4H)-yl)(4-methyloxazol-5-yl)methanone] it is 500 to 1000 nM.
On to `O=C(c1ocnc1C(F)(F)F)N1CCc2[nH]cnc2[C@H]1c1cc2cccc(C(F)(F)F)n2n1` [Example 1176, (S)-(4-(trifluoromethyl)oxazol-5-yl)(4-(7-(trifluoromethyl)pyrazolo[1,5-a]pyridin-2-yl)-6,7-dihydro-1H-imidazo[4,5-c]pyridin-5(4H)-yl)methanone], for which the AC50 was < 500 nM.
As to `CC(C)(O)c1nc(C(F)(F)F)c(C(=O)N2CCc3[nH]cnc3[C@H]2c2cc3cccc(C(F)(F)F)n3n2)o1` [Example 1178, (S)-(2-(2-hydroxypropan-2-yl)-4-(trifluoromethyl)oxazol-5-yl)(4-(7-(trifluoromethyl)pyrazolo[1,5-a]pyridin-2-yl)-6,7-dihydro-1H-imidazo[4,5-c]pyridin-5(4H)-yl)methanone], the AC50 is < 500 nM.
Turning to `C[C@@H](O)c1nc(C(F)F)c(C(=O)N2CCc3[nH]cnc3[C@H]2c2cc3cccc(C(F)(F)F)n3n2)o1` [Example 1180, (4-(difluoromethyl)-2-((R)-1-hydroxyethyl)oxazol-5-yl)((S)4-(7-(trifluoromethyl)pyrazolo[1,5-a]pyridin-2-yl)-6,7-dihydro-1H-imidazo[4,5-c]pyridin-5(4H)-yl)methanone], the AC50 fell in the range of 500 to 1000 nM.
The figure for `COc1cccn2nc([C@H]3c4nc[nH]c4CCN3C(=O)c3nnc(C(C)(C)C)o3)cc12` [Example 1182, (R)-(5-(tert-butyl)-1,3,4-oxadiazol-2-yl)(4-(4-methoxypyrazolo[1,5-a]pyridin-2-yl)-6,7-dihydro-1H-imidazo[4,5-c]pyridin-5(4H)-yl)methanone] is 1000 to 5000 nM; for `COc1cccn2nc([C@@H]3c4nc[nH]c4CCN3C(=O)c3nnc(C(C)(C)C)o3)cc12` [Example 1183, (S)-(5-(tert-butyl)-1,3,4-oxadiazol-2-yl)(4-(4-methoxypyrazolo[1,5-a]pyridin-2-yl)-6,7-dihydro-1H-imidazo[4,5-c]pyridin-5(4H)-yl)methanone] it is 500 to 1000 nM.
Turning to `Cc1ccc2cc([C@H]3c4nc[nH]c4CCN3C(=O)c3cnco3)nn2c1` [Example 1186, (R)-(4-(6-methylpyrazolo[1,5-a]pyridin-2-yl)-6,7-dihydro-1H-imidazolo[4,5-c]pyridin-5(4H)-yl)(oxazol-5-yl)methanone], the concentration at half-maximal activity (AC50) is 500 to 1000 nM.
For `Cc1ccc2cc([C@@H]3c4nc[nH]c4CCN3C(=O)c3cnco3)nn2c1` [Example 1187, (S)-(4-(6-methylpyrazolo[1,5-a]pyridin-2-yl)-6,7-dihydro-1H-imidazo[4,5-c]pyridin-5(4H)-yl)(oxazol-5-yl)methanone] the value was 1000 to 5000 nM.
For the molecule `Cc1c(-c2nnc(C(=O)N3CCc4[nH]cnc4[C@@H]3c3cc4cccc(C)n4n3)o2)cnn1C` [Example 1189, (R)-(5-(1,5-dimethyl-1H-pyrazol-4-yl)-1,3,4-oxadiazol-2-yl)(4-(7-methylpyrazolo[1,5-a]pyridin-2-yl)-6,7-dihydro-1H-imidazo[4,5-c]pyridin-5(4H)-yl)methanone], the AC50 lay within 1000 to 5000 nM.
On to `Cc1c(-c2nnc(C(=O)N3CCc4[nH]cnc4[C@@H]3c3cc4cccc(C(F)(F)F)n4n3)o2)cnn1C` [Example 1191, (R)-(5-(1,5-dimethyl-1H-pyrazol-4-yl)-1,3,4-oxadiazol-2-yl)(4-(7-(trifluoromethyl)pyrazolo[1,5-a]pyridin-2-yl)-6,7-dihydro-1H-imidazo[4,5-c]pyridin-5(4H)-yl)methanone], for which the AC50 lay within 1000 to 5000 nM.
For `CC(C)(O)c1nc(C(F)(F)F)c(C(=O)N2CCc3[nH]cnc3[C@H]2c2cc3cccc(Cl)n3n2)o1` [Example 1192, (S)-(4-(7-chloropyrazolo[1,5-a]pyridin-2-yl)-6,7-dihydro-1H-imidazo[4,5-c]pyridin-5(4H)-yl)(2-(2-hydroxypropan-2-yl)-4-(trifluoromethyl)oxazol-5-yl)methanone] the value was < 500 nM.
For `CC(C)(O)c1nc(C(F)(F)F)c(C(=O)N2CCc3[nH]cnc3[C@@H]2c2cc3cccc(Cl)n3n2)o1` [Example 1193, (R)-(4-(7-chloropyrazolo[1,5-a]pyridin-2-yl)-6,7-dihydro-1H-imidazo[4,5-c]pyridin-5(4H)-yl)(2-(2-hydroxypropan-2-yl)-4-(trifluoromethyl)oxazol-5-yl)methanone] the value was 1000 to 5000 nM; for `C[C@H](O)c1nc(C(F)F)c(C(=O)N2CCc3[nH]cnc3[C@@H]2c2cc3cccc(Cl)n3n2)o1` [Example 1194, ((R)-4-(7-chloropyrazolo[1,5-a]pyridin-2-yl)-6,7-dihydro-1H-imidazo[4,5-c]pyridin-5(4H)-yl)(4-(difluoromethyl)-2-((S)-1-hydroxyethyl)oxazol-5-yl)methanone], 1000 to 5000 nM.
The figure for `C[C@H](O)c1nc(C(F)F)c(C(=O)N2CCc3[nH]cnc3[C@H]2c2cc3cccc(Cl)n3n2)o1` [Example 1195, ((S)-4-(7-chloropyrazolo[1,5-a]pyridin-2-yl)-6,7-dihydro-1H-imidazo[4,5-c]pyridin-5(4H)-yl)(4-(difluoromethyl)-2-((S)-1-hydroxyethyl)oxazol-5-yl)methanone] is 500 to 1000 nM; for `C[C@@H](O)c1nc(C(F)F)c(C(=O)N2CCc3[nH]cnc3[C@@H]2c2cc3cccc(Cl)n3n2)o1` [Example 1197, ((R)-4-(7-chloropyrazolo[1,5-a]pyridin-2-yl)-6,7-dihydro-1H-imidazo[4,5-c]pyridin-5(4H)-yl)(4-(difluoromethyl)-2-((R)-1-hydroxyethyl)oxazol-5-yl)methanone] it is 1000 to 5000 nM.
Regarding `C[C@H](O)c1nc(C(F)F)c(C(=O)N2CCc3[nH]cnc3[C@H]2c2cc3cccc(C(F)(F)F)n3n2)o1` [Example 1200, (4-(difluoromethyl)-2-((S)-1-hydroxyethyl)oxazol-5-yl)((S)-4-(7-(trifluoromethyl)pyrazolo[1,5-a]pyridin-2-yl)-6,7-dihydro-1H-imidazo[4,5-c]pyridin-5(4H)-yl)methanone], the AC50 was 500 to 1000 nM.
For `C[C@H](O)c1nc(C(F)F)c(C(=O)N2CCc3[nH]cnc3[C@@H]2c2cc3cccc(C(F)(F)F)n3n2)o1` [Example 1201, (4-(difluoromethyl)-2-((S)-1-hydroxyethyl)oxazol-5-yl)((R)-4-(7-(trifluoromethyl)pyrazolo[1,5-a]pyridin-2-yl)-6,7-dihydro-1H-imidazo[4,5-c]pyridin-5(4H)-yl)methanone] the value was 500 to 1000 nM.

The record behind these values is US20230365592A1 (Agios Pharmaceuticals, Inc., priority 2022, published 2023).
